Key:
Type in all cases: functional, cell-based
[1] = tested on: K562; assay: Antiproliferative activity against human K562 cells assessed as inhibition of cell proliferation measured after 72 hrs by MTT assay; settings: K562, 72 h
[2] = tested on: SK-OV-3; assay: Antiproliferative activity against human SK-OV-3 cells assessed as inhibition of cell proliferation measured after 72 hrs by MTT assay; settings: SK-OV-3, 72 h
[3] = tested on: Ramos; assay: Antiproliferative activity against human Ramos cells assessed as inhibition of cell proliferation measured after 72 hrs by MTT assay

IC50 [1] [nM]	IC50 [2] [nM]	IC50 [3] [nM]	SMILES
34.1	97.5	> 100	O=C(Cc1ccc(-c2ccc(OCCN3CCC4(CC3)CC4)cc2)cn1)NCc1ccccc1
> 100	80.2	> 100	O=C(Cc1ccc(-c2ccc(OCCCN3C[C@@H]4C[C@H]3CO4)cc2)cn1)NCc1ccccc1
> 100	57.7	> 100	CC1CCCN(CCOc2ccc(-c3ccc(CC(=O)NCc4ccccc4)nc3)cc2)C1 (centres undefined)
29.2	9.1	19.6	O=C(Cc1ccc(-c2ccc(OCCN3CC4CC4C3)cc2)cn1)NCc1ccccc1 (centres undefined)
41.5	165	64.4	CC1(C)C2CN(CCOc3ccc(-c4ccc(CC(=O)NCc5ccccc5)nc4)cc3)CC21 (centres undefined)
14.6	7.1	8.6	O=C(Cc1ccc(-c2ccc(OCCCN3CC4CCC(C3)O4)cc2)cn1)NCc1ccccc1
16.5	6.7	23.8	O=C(Cc1ccc(-c2ccc(OCCN3CCC4(CC3)OCCO4)cc2)cn1)NCc1ccccc1
29.3	5.2	98.1	O=C(Cc1ccc(-c2ccc(OCCNC3CC3)cc2)cn1)NCc1ccccc1
39.9	14.5	36.3	CCN1CCN(CCOc2ccc(-c3ccc(CC(=O)NCc4ccccc4)nc3)cc2)CC1
5.8	2.4	4.1	O=C(Cc1ccc(-c2ccc(OCCN3CCN(S(=O)(=O)C4CC4)CC3)cc2)cn1)NCc1ccccc1
> 100	53.3	15.9	CC(C)(C)OC(=O)N1CCN(CCOc2ccc(-c3ccc(CC(=O)NCc4ccccc4)nc3)cc2)CC1
29.6	10.4	43.5	O=C(Cc1ccc(-c2ccc(OCCCCN3CCOCC3)cc2)cn1)NCc1ccccc1
29.4	12.6	25.7	O=C(Cc1ccc(-c2ccc(OCCN3CCN(C(=O)[C@H]4C[C@@H]4F)CC3)cc2)cn1)NCc1ccccc1
